The source of these data is patent US7001907B2, “Peptide-containing α-ketoamide cysteine and serine protease inhibitors” (Cephaon, Inc., priority 1997, dated 2006).

SMILES strings stand for the structures.

One experiment deals with T1, Recombinant human calpain I (Homo sapiens, UniProt P07384).
T1 construct: made in house
T1 sequence (P07384 1-714): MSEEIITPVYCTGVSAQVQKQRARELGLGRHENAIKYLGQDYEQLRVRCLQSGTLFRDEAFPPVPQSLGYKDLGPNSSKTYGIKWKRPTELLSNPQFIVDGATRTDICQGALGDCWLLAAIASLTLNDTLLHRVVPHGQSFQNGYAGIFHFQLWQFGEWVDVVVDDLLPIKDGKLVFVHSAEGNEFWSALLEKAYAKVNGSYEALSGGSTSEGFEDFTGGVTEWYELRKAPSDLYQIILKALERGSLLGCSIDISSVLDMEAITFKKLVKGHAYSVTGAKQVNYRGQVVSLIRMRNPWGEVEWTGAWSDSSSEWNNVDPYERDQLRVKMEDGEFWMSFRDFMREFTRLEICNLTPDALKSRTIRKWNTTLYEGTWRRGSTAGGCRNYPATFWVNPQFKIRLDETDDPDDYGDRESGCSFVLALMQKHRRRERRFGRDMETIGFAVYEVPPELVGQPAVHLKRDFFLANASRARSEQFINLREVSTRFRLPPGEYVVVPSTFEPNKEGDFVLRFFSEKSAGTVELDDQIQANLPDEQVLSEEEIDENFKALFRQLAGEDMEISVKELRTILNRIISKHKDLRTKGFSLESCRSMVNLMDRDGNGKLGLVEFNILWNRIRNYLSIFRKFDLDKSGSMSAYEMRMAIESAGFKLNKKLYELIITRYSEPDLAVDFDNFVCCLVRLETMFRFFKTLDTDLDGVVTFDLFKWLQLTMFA
T1 sequence (P04632 1-268 partner): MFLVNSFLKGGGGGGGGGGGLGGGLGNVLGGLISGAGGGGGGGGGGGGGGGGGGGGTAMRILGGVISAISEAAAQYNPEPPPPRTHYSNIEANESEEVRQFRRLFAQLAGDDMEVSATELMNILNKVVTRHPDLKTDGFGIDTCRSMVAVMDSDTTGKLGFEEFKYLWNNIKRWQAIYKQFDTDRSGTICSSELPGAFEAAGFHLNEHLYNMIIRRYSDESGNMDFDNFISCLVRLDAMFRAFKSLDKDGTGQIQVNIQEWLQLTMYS
As to the kind of experiment: Inhibition of cysteine protease activity: calpain I, Succ-Leu-Tyr-MNA substrate hydrolysis. The format is biochemical. Conditions: Table 4, α-ketoamides. As for the experimental part: To evaluate inhibitory activity, stock solutions (40 times concentrated) of each compound to be tested were prepared in 100% anhydrous DMSO and 5 μl of each inhibitor preparation were aliquoted into each of three wells of a 96-well plate. Recombinant human calpain I, prepared by the method of Meyer et al. (Biochem. J. 1996, 314: 511–519; incorporated herein by reference in its entirety), was diluted into assay buffer (i.e., 50 mM Tris, 50 mM NaCl, 1 mM EDTA, 1 mM EGTA, and 5 mM β-mercaptoethanol, pH 7.5, including 0.2 mM Succ-Leu-Tyr-MNA), and 175 μl was aliquoted into the same wells containing the independent inhibitor stocks as well as to positive control wells containing 5 μl DMSO, but no compound. To start the reaction, 20 μl of 50 mM CaCl2 in assay buffer was added to all wells of the plate, excepting three, which were used as background signal baseline controls. Substrate hydrolysis was monitored every 5 minutes for a total of 30 minutes. Substrate hydrolysis in the absence of inhibitor was linear for up to 15 minutes.
Inhibition of calpain I activity was calculated as the percent decrease in the rate of substrate hydrolysis in the presence of inhibitor relative to the rate in its absence. Comparison between the inhibited and control rates was made within the linear range for substrate hydrolysis. The IC50s of inhibitors (concentration yielding 50% inhibition) were determined from the percent decrease in rates of substrate hydrolysis in the presence of five to seven different concentrations of the test compound. The results were plotted as percent inhibition versus log inhibitor concentration, and the IC50 was calculated by fitting the data to the four-parameter logistic equation shown below using the program GraphPad Prism (GraphPad Software, Inc., San Diego, Calif.). y=d+[(a−d)/(1+(x/c)^b)]
The parameters a, b, c, and d are defined as follows: a is % inhibition in the absence of inhibitor, b is the slope, c is the IC50, and d is the % inhibition at an infinite concentration of inhibitor.
Regarding `CS(=O)(=O)N[C@H](COCc1ccccc1)C(=O)N[C@@H](Cc1ccccc1)C(=O)C(=O)NCCNS(=O)(=O)c1ccc(-c2cccc(C=O)c2)s1` [Compound 52], the 50% inhibitory concentration (IC50) (as a rule, the concentration that inhibits the measured activity by half) was 5 nM.
Take `CS(=O)(=O)N[C@H](COCc1ccccc1)C(=O)N[C@@H](Cc1ccccc1)C(=O)C(=O)NCCNC(=NC#N)Oc1ccccc1` [Compound 53]: the IC50 was 15 nM.
Still for that read-out and setting: the value for `CN(C)Cc1cccc(-c2ccc(S(=O)(=O)NCCNC(=O)C(=O)[C@H](Cc3ccccc3)NC(=O)[C@@H](COCc3ccccc3)NS(C)(=O)=O)s2)c1` [Compound 54] was 12 nM; that for `CC(C)(C)OC(=O)NC1CCCC(NC(=O)C(=O)[C@H](Cc2ccccc2)NC(=O)[C@@H](COCc2ccccc2)NS(C)(=O)=O)C1` (stereo partly drawn) [Compound 55] was 42 nM; that for `CS(=O)(=O)N[C@H](COCc1ccccc1)C(=O)N[C@@H](Cc1ccccc1)C(=O)C(=O)NCCNS(=O)(=O)c1ccc(-c2cccc(CN3CCOCC3)c2)s1` [Compound 56] was 18 nM.
Turning to `CS(=O)(=O)N[C@H](COCc1ccccc1)C(=O)N[C@@H](Cc1ccccc1)C(=O)C(=O)NCCNS(=O)(=O)c1ccc(CN2CCOCC2)cc1` [Compound 57], the half-inhibitory concentration (IC50) was 18 nM.
With `CN1CCN(Cc2cccc(-c3ccc(S(=O)(=O)NCCNC(=O)C(=O)[C@H](Cc4ccccc4)NC(=O)[C@@H](COCc4ccccc4)NS(C)(=O)=O)s3)c2)CC1` [Compound 58], the 50% inhibitory concentration (IC50) worked out at 21 nM.
On the same count and under the same terms, the result for `CS(=O)(=O)N[C@H](COCc1ccccc1)C(=O)N[C@@H](Cc1ccccc1)C(=O)C(=O)NCCS(=O)(=O)Nc1ccccc1` [Compound 60] reads 47 nM; that for `CS(=O)(=O)N[C@H](COCc1ccccc1)C(=O)N[C@@H](Cc1ccccc1)C(=O)C(=O)NCCS(=O)(=O)Nc1ccc(C(F)(F)F)cc1` [Compound 61], 32 nM.
Turning to `CS(=O)(=O)N[C@H](COCc1ccccc1)C(=O)N[C@@H](Cc1ccccc1)C(=O)C(=O)NCCCS(=O)(=O)Nc1ccccc1` [Compound 62], the IC50 was 18 nM.
Take `CS(=O)(=O)N[C@H](COCc1ccccc1)C(=O)N[C@@H](Cc1ccccc1)C(=O)C(=O)NCCCS(=O)(=O)Nc1ccc(C(F)(F)F)cc1` [Compound 63]: the IC50 was determined as 23 nM.
Take `CN(CCNC(=O)C(=O)[C@H](Cc1ccccc1)NC(=O)[C@@H](COCc1ccccc1)NS(C)(=O)=O)S(=O)(=O)c1ccc(-c2cccc(C=O)c2)s1` [Compound 65]: the concentration for half-maximal inhibition (IC50) is 19 nM.
As to `C[C@H](OCc1ccccc1)[C@@H](NS(C)(=O)=O)C(=O)N[C@@H](Cc1ccccc1)C(=O)C(=O)NCCNS(=O)(=O)c1ccc(-c2ccccn2)s1` [Compound 66], the IC50 was determined as 12 nM.
For `CS(=O)(=O)N[C@H](Cc1ccccc1)C(=O)N[C@@H](Cc1ccccc1)C(=O)C(=O)NCCNS(=O)(=O)c1ccc(-c2ccccn2)s1` [Compound 71], the IC50 was 18 nM.
In the case of `CS(=O)(=O)N[C@H](COCc1ccccc1)C(=O)N[C@@H](Cc1ccccc1)C(=O)C(=O)NCCCS(=O)(=O)NN1CCOCC1` [Compound 80], the IC50 amounted to 169 nM.
Regarding `CS(=O)(=O)N[C@H](COCc1ccccc1)C(=O)N[C@@H](Cc1ccccc1)C(=O)C(=O)NCCCS(=O)(=O)N1CCOCC1` [Compound 81], the 50% inhibitory concentration (IC50) came out at 124 nM.
In the case of `CN(C)c1cccc2c(S(=O)(=O)NCCNC(=O)C(=O)[C@H](Cc3ccccc3)NC(=O)[C@@H](COCc3ccccc3)NS(C)(=O)=O)cccc12` [Compound 86], the IC50 amounted to 49 nM.
With `CS(=O)(=O)N[C@H](COCc1ccccc1)C(=O)N[C@@H](Cc1ccccc1)C(=O)C(=O)NCCNS(=O)(=O)c1cc2ccccc2s1` [Compound 87], the half-maximal inhibitory concentration (IC50) stood at 23 nM.
As for `CC(C)C[C@H](NC(=O)OCc1ccccc1)C(=O)N[C@@H](CC(C)C)C(=O)N[C@@H](Cc1ccccc1)C(=O)C(=O)NCCNS(=O)(=O)c1ccc(-c2ccccn2)s1` [Compound 88], the half-maximal inhibitory concentration (IC50) is 33 nM.
Still for that read-out and setting: the value for `CS(=O)(=O)N[C@H](COCc1ccccc1)C(=O)N[C@@H](Cc1ccccc1)C(=O)C(=O)NCCNS(=O)(=O)c1ccc(-c2ccc(C=O)cc2)s1` [Compound 90] was 17 nM; that for `COCC1CCCN1Cc1ccc(S(=O)(=O)NCCNC(=O)C(=O)[C@H](Cc2ccccc2)NC(=O)[C@@H](COCc2ccccc2)NS(C)(=O)=O)cc1` (stereo partly drawn) [Compound 91] was 19 nM; that for `CS(=O)(=O)N[C@H](COCc1ccccc1)C(=O)N[C@@H](Cc1ccccc1)C(=O)C(=O)NCCNS(=O)(=O)c1ccc(-c2ccccc2CN2CCOCC2)s1` [Compound 93] was 40 nM.
In the case of `CS(=O)(=O)N[C@H](COCc1ccccc1)C(=O)N[C@@H](Cc1ccccc1)C(=O)C(=O)NCCNS(=O)(=O)c1ccc(-c2ccc(CN3CCOCC3)cc2)s1` [Compound 94], the IC50 stood at 22 nM.
As to `CS(=O)(=O)N[C@H](COCc1ccccc1)C(=O)N[C@@H](Cc1ccccc1)C(=O)C(=O)NCCNS(=O)(=O)c1ccc(-c2cccc(CN3CCCCC3)c2)s1` [Compound 95], the 50% inhibitory concentration (IC50) was 30 nM.
Take `CC(=O)Nc1nc(C)c(S(=O)(=O)NCCNC(=O)C(=O)[C@H](Cc2ccccc2)NC(=O)[C@@H](COCc2ccccc2)NS(C)(=O)=O)s1` [Compound 96]: the IC50 is 23 nM.
With `CS(=O)(=O)N[C@H](COCc1ccccc1)C(=O)N[C@@H](Cc1ccccc1)C(=O)C(=O)NCCNS(=O)(=O)c1ccc(-c2ccccc2C=O)s1` [Compound 98], the IC50 turned out to be 24 nM.
With `CCN(CC)Cc1cccc(-c2ccc(S(=O)(=O)NCCNC(=O)C(=O)[C@H](Cc3ccccc3)NC(=O)[C@@H](COCc3ccccc3)NS(C)(=O)=O)s2)c1` [Compound 101], the half-maximal inhibitory concentration (IC50) turned out to be 22 nM.
`CN(Cc1cccc(-c2ccc(S(=O)(=O)NCCNC(=O)C(=O)[C@H](Cc3ccccc3)NC(=O)[C@@H](COCc3ccccc3)NS(C)(=O)=O)s2)c1)C1CCCCC1` [Compound 102]: the half-maximal inhibitory concentration (IC50) came to 36 nM.
For `CS(=O)(=O)N[C@H](COCc1ccccc1)C(=O)N[C@@H](Cc1ccccc1)C(=O)C(=O)NCCNS(=O)(=O)c1ccc(-c2cccc(CN3CCCC3)c2)s1` [Compound 103], the IC50 turned out to be 24 nM.
In the case of `CS(=O)(=O)N[C@H](COCc1ccccc1)C(=O)N[C@@H](Cc1ccccc1)C(=O)C(=O)NCCNS(=O)(=O)c1ccc(-c2cccc(C#N)c2)s1` [Compound 104], the IC50 is 10 nM.
On to `CS(=O)(=O)N[C@H](COCc1ccccc1)C(=O)N[C@@H](Cc1ccccc1)C(=O)C(=O)NCCNS(=O)(=O)c1ccc(-c2cccc(CN3CCC3)c2)s1` [Compound 106], for which the half-inhibitory concentration (IC50) was 44 nM.
Take `COCCN(CCOC)Cc1cccc(-c2ccc(S(=O)(=O)NCCNC(=O)C(=O)[C@H](Cc3ccccc3)NC(=O)[C@@H](COCc3ccccc3)NS(C)(=O)=O)s2)c1` [Compound 109]: the concentration for half-maximal inhibition (IC50) came to 22 nM.
On to `CS(=O)(=O)N[C@H](COCc1ccccc1)C(=O)N[C@@H](Cc1ccccc1)C(=O)C(=O)NCCNS(=O)(=O)c1ccc(-c2cccc(CN3CCSCC3)c2)s1` [Compound 114], for which the concentration for half-maximal inhibition (IC50) was found to be 33 nM.
As to `CS(=O)(=O)N[C@H](COCc1ccccc1)C(=O)N[C@@H](Cc1ccccc1)C(=O)C(=O)NCCNS(=O)(=O)c1ccc(-c2cccc(CN3CCC(=O)CC3)c2)s1` [Compound 115], the IC50 came to 16 nM.
For the compound `CS(=O)(=O)N[C@@H](COCc1ccccc1)C(=O)N[C@@H](Cc1ccccc1)C(=O)C(=O)NCCNS(=O)(=O)c1ccccc1` [Compound 116], the 50% inhibitory concentration (IC50) came to 100 nM.

The experiment is the same for the next values; noted with them: Table 4; 0.1 μM compound; value in brackets marked *.
With `CS(=O)(=O)N[C@H](COCc1ccccc1)C(=O)N[C@@H](Cc1ccccc1)C(=O)C(=O)NC1CCC(=O)NC1` (stereo partly drawn) [Compound 64], the “Percent inhibition @ 0.1 μM (Calpain)” value was “(33)* Percent”.
